Measured values from article PMC3038857, “Using Nuclear Receptor Activity to Stratify Hepatocarcinogens” (PLoS ONE, 2011).
Where two headings read alike, the source gives them in different places.

Experiments:
[1] = biological target: T1, PPARG (peroxisome proliferator-activated receptor gamma) (Homo sapiens, UniProt P37231); assay: ATG_PPARg_TRANS: Factorial reporter gene assay (HepG2); assay type: cell-based; details: HepG2
T1 construct: expressed in transfected cells; host or cells: HepG2
T1 sequence (P37231 1-505): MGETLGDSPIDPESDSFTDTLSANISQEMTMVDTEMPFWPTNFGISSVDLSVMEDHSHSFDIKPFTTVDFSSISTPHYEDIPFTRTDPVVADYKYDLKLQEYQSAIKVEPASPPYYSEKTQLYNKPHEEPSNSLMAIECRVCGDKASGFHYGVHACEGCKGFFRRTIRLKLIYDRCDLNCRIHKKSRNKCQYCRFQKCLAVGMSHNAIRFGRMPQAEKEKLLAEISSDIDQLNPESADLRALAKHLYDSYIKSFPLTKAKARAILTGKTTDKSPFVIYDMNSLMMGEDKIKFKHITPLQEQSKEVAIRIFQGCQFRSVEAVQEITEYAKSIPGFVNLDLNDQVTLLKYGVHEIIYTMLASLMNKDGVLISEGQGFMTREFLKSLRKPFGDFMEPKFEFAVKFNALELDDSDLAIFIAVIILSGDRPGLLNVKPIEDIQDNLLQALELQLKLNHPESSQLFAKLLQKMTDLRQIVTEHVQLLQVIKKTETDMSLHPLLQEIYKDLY
Summary of the method: (§1)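 Compounds at seven concentrations (top at MTC, threefold serial) were applied to transfected HepG2 hepatoma cells, with PXRE scored by cis-element reporters and ERRg, FXR and PPARg scored by trans one-hybrid nuclear receptor reporters.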

AR (androgen receptor) = assay: NVS_NR_hAR: Human AR 3H-Methyltrienolone (cell-free HTS); assay type: binding
Description: These are a collection of biochemical assays measuring binding constants and enzyme inhibition values. Chemicals were initially screened at a single concentration in duplicate wells at a concentration of 10 [drawing 63] M for cytochrome P-450 assays and 25 [drawing 64] M for all others. […] These assays were run by Caliper Life Sciences (Hanover, MD) under contract to EPA. Short assay descriptions are available at: http://www.caliperls.com/products/contract-research/in-vitro/.
Cell-free HTS Assays: A collection of biochemical assays measuring binding constants and enzyme inhibition values. […] These assays were run by Caliper Life Sciences (Hanover, MD) under contract to EPA. Short assay descriptions are available at http://www.caliperls.com/products/contract-research/in-vitro/. Values for all endpoints were imported into GeneData Screener (Basel, Switzerland) and normalised to solvent controls from the same plate as the tested compounds and expressed as percent of neutral control. Concentration-response curves were fit in GeneData Screener (Basel, Switzerland) Condeseo module using the Hill equation and AC50 values were determined. […] Detailed description of the methods, data and analysis methods for this dataset are described in a separate publication.

PXR (NR1I2) [2] = biological target: T2, PXR (NR1I2) (Homo sapiens, UniProt O75469); assay: NVS_NR_hPXR: Human PXR Fluormone PXR (SXR) green (cell-free HTS); assay type: binding
T2 sequence (O75469 1-434): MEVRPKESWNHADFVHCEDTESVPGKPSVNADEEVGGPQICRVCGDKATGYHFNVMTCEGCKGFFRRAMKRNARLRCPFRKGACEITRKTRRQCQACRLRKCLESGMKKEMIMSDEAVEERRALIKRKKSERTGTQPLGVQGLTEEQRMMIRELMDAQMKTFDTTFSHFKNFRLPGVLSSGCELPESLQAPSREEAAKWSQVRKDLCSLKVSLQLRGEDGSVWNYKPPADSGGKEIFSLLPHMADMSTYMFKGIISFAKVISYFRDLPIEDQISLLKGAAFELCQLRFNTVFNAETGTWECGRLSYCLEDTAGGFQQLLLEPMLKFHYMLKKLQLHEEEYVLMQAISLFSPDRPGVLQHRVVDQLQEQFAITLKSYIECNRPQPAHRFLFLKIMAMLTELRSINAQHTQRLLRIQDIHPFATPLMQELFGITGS
Summary of the method: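 Cell-free biochemical binding assays; chemicals first screened at a single concentration of 25 […] M in duplicate wells. Signals normalised to same-plate solvent controls as percent of neutral control, and AC50 values came from Hill-equation fits of concentration-response curves.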

Mouse Liver [3] = details: mouse, chronic study, ref ToxRefDB; cited from earlier work
Mouse Liver [4] = details: mouse, chronic study, ref ToxRefDB; cited from earlier work; remark: listed apart in the source
Mouse Liver [5] = details: mouse, chronic study, ref ToxRefDB; cited from earlier work; remark: listed apart in the source
Rat Liver [6] = details: ref ToxRefDB, cited from earlier work
Rat Liver [7] = details: ref ToxRefDB, cited from earlier work; remark: listed apart in the source
Rat Liver [8] = details: ref ToxRefDB, cited from earlier work; remark: listed apart in the source
PXR (NR1I2) [9] = biological target: T2, PXR (NR1I2); assay: ATG_PXR_TRANS: Factorial reporter gene assay (HepG2); assay type: cell-based; set-up: endogenous in cells; host or cells: HepG2; details: HepG2
Summary of the method: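 Seven concentrations per chemical, three-fold dilutions down from the MTC, were tested in HepG2 hepatoma cells. Those cells carried a multiple reporter transcription unit library, read either as cis transcription-factor-site reporters or as a trans mammalian one-hybrid panel for nuclear receptors.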

PXR (NR1I2) [10] = biological target: T2, PXR (NR1I2); assay: ATG_PXRE_CIS: Factorial reporter gene assay (HepG2); assay type: cell-based; set-up: endogenous in cells; host or cells: HepG2; details: HepG2
Summary of the method: as §1

[11] = biological target: T3, AHR (aryl hydrocarbon receptor) (Homo sapiens, UniProt P35869); assay: ATG_Ahr_CIS: Factorial reporter gene assay (multiplexed transcription reporter, HepG2); assay type: cell-based; details: HepG2
T3 construct: endogenous in cells; host or cells: HepG2
T3 sequence (P35869 11-848): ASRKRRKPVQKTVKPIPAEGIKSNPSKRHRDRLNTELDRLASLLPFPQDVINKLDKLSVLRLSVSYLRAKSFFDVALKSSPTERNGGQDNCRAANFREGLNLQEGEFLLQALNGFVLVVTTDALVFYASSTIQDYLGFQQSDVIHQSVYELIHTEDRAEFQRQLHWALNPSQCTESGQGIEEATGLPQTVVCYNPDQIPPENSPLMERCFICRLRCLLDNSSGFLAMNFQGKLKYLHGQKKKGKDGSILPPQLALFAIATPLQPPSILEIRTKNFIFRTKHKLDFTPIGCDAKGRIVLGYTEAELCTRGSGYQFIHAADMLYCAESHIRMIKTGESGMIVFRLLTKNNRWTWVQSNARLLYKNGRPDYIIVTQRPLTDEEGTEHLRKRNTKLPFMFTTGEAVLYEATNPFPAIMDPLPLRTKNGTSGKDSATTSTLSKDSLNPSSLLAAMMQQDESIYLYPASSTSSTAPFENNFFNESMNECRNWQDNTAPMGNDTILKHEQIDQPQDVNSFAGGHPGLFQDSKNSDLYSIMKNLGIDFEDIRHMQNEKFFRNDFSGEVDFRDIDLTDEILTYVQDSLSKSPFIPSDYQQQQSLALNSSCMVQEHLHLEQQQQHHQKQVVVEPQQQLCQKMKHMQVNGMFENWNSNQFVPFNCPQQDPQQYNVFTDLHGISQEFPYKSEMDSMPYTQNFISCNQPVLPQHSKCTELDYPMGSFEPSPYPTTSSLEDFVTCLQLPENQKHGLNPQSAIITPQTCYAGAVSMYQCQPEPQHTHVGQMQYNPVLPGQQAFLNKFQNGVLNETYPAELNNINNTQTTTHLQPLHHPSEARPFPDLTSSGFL
Method: (§2) A multiple reporter transcription unit (MRTU) library consisting of 48 transcription factor binding sites was transfected into the HepG2 human liver hepatoma cell line. In addition to the cis-acting reporter genes (CIS), a modification of the approach was used to generate a trans-system (TRANS) with a mammalian one-hybrid assay consisting of an additional 25 MRTU library reporting the activity of nuclear receptor super-family members. […] These assays were performed by Attagene Inc. (Morrisville NC) under contract to EPA.
(§3) In addition to the cis-acting reporter genes (CIS), a modification of the approach was used to generate a trans-system (TRANS) with a mammalian one-hybrid assay consisting of an additional 25 MRTU library reporting the activity of nuclear receptor super-family members. […] Chemicals were then tested in the CIS and TRANS assays at seven concentrations starting at the MTC and followed by three-fold serial dilutions. These assays were performed by Attagene Inc. (Morrisville NC) under contract to EPA. Detailed description of the methods, data and analysis methods for this dataset will be presented in a separate publication.

LXRb (NR1H2) = biological target: T4, LXRb (NR1H2) (Homo sapiens, UniProt P55055); assay: ATG_LXRb_TRANS: Factorial reporter gene assay (HepG2); assay type: cell-based; details: HepG2
T4 construct: expressed in transfected cells; host or cells: HepG2
T4 sequence (P55055 1-460): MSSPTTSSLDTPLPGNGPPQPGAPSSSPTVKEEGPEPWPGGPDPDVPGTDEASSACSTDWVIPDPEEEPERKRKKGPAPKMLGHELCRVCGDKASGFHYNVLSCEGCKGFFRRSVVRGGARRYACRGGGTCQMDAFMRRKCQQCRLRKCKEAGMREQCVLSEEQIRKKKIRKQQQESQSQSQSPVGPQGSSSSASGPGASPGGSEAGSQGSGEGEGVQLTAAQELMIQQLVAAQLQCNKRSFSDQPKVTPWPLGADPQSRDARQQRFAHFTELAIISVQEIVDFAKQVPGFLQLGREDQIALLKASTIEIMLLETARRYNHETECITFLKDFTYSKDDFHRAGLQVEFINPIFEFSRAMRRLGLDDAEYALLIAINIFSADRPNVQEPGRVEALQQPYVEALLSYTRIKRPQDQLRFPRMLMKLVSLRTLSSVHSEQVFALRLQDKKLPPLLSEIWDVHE
Method: as §2, §3

LXRa (NR1H3) = biological target: T5, LXRa (NR1H3) (Homo sapiens, UniProt Q13133); assay: ATG_LXRa_TRANS: Factorial reporter gene assay (HepG2); assay type: cell-based; details: HepG2
T5 construct: expressed in transfected cells; host or cells: HepG2
T5 sequence (Q13133 1-447): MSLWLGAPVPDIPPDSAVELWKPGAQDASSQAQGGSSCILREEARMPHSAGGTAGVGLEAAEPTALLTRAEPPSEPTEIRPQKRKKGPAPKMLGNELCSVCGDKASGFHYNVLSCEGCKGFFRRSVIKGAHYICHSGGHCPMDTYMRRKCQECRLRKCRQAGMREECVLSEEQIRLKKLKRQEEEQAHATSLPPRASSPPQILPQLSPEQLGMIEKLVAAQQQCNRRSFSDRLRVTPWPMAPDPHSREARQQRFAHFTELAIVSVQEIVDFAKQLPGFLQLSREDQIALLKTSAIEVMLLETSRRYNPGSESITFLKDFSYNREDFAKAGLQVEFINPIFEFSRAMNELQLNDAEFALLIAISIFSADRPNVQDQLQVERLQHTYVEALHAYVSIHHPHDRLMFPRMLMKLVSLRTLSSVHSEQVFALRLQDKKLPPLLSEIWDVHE
Method: as §2, §3

SMILES	ATG_PPARg_TRANS [1]	NVS_NR_hAR (AR (androgen receptor))	NVS_NR_hPXR (PXR (NR1I2) [2])	CHR_Mouse_Liver_1_AnyLesion (Mouse Liver [3])	CHR_Mouse_Liver_2_PreneoplasticLesion (Mouse Liver [4])	CHR_Mouse_Liver_3_NeoplasticLesion (Mouse Liver [5])	CHR_Rat_Liver_1_AnyLesion (Rat Liver [6]; rat, chronic study)	CHR_Rat_Liver_2_PreneoplasticLesion (Rat Liver [7]; rat, chronic study)	CHR_Rat_Liver_3_NeoplasticLesion (Rat Liver [8]; rat, chronic study)	ATG_PXR_TRANS (PXR (NR1I2) [9])	ATG_PXRE_CIS (PXR (NR1I2) [10])	ATG_Ahr_CIS [11]	ATG_LXRb_TRANS (LXRb (NR1H2))	CHR_Rat_Liver_1_AnyLesion (Rat Liver [6]; chronic rat study, liver)	CHR_Rat_Liver_2_PreneoplasticLesion (Rat Liver [7]; chronic rat study, liver)	CHR_Rat_Liver_3_NeoplasticLesion (Rat Liver [8]; chronic rat study, liver)	ATG_LXRa_TRANS (LXRa (NR1H3))
CCCN(CCOc1c(Cl)cc(Cl)cc1Cl)C(=O)n1ccnc1 [r251]	5.456	4.903	5.274	6	6	6	6	0	0	5.444	5.538	–	–	–	–	–	–
COC(=O)c1ccccc1S(=O)(=O)NC(=O)Nc1nc(C)nc(OC)n1 [row 210]	–	–	–	–	–	–	–	–	–	–	–	4.337	4.215	0	0	0	–
CN=C=S [row 205]	4.215	–	–	–	–	–	–	–	–	–	–	–	–	–	–	–	4.495
